# Results reported in patent US6281214A, “Biphenyl derivatives” (Eisai Co., Ltd, priority 1994, dated 2001).
# Where two headings read alike, the source gives them in different places.
# Tests used:
# Design in all cases: species or system SD rats
# [1] = molecular target: T1, dopamine D2 receptor (Rattus norvegicus, UniProt P61169); test: dopamine D2 receptor binding test ([3H] Spiperone Binding Test); settings: 1 nM [3H] Spiperone, rat corpus striatum, room temperature, 60 minutes
# T1 construct: the receptor fraction prepared from the corpus striatum was molten and suspended; from tissue; host or cells: corpus striatum of SD rats (membrane fraction)
# T1 sequence (P61169 whole entry): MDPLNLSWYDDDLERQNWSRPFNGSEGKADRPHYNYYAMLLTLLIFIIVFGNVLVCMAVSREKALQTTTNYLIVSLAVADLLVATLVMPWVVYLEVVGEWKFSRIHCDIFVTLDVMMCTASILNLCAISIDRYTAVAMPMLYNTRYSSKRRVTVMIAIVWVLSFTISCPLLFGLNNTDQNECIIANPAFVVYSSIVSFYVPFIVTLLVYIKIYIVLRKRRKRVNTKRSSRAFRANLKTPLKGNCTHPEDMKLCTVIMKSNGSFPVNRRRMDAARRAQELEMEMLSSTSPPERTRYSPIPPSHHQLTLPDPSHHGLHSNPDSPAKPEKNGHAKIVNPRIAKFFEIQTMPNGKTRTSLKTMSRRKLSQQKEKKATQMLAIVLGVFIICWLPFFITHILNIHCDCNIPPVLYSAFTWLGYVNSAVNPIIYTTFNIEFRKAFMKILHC
# Experimental: (§1) The compounds of the present invention were subjected to each of serotonin S2 receptor binding test, dopamine D2 receptor binding test and adrenergic α1 receptor binding test.
# (§2) The following reagents were used in this test.
# (§3) These reagents and samples were each dissolved in 10% ethanol before use. Among them, water-insoluble compounds were each dissolved in ethanol and the obtained solution was diluted with distilled water to an ethanol concentration of 10%. Further, Methylsergide maleate was used in a state dissolved in distilled water.
# (§4) SD rats aged 6 to 8 weeks were used.
# (§5) SD rats were each slaughtered with a guillotine to extirpate its cerebrum. The cortex and corpus striatum were separated from the cerebrum. The former was used in serotonin S2 receptor binding test and adrenergic α1, receptor binding test, while the latter was used in dopamine D2 receptor binding test.
# On the other hand, the corpus striatum was homogenized in a 0.32 M sucrose solution in an amount ten times the wet weight of the corpus striatum by the use of a teflon glass homogenizer and the obtained mixture was centrifuged at 1,000×G for 20 minutes. The obtained supernatant was centrifuged at 10,000×G for 20 minutes. The obtained sediments were suspended together in 50 mM Tris hydrochloride (pH 7.4) in an amount ten times the initial wet weight of the corpus striatum by the use of a histocothrom, and the obtained suspension was centrifuged at 10,000×G for 20 minutes. This operation was repeated thrice. The resulting sediment was suspended in 50 mM Krebs-Tris (pH 7.4) in an amount 100 times the initial wet weight of the corpus striatum by the use of a histocothrom. The obtained suspension was used as a receptor fraction. This receptor fraction was stored at -80° C. until use.
# (§6) Each IC50 value was calculated by the probit method and each Ki value was determined by the following formula: [formula]
# (§7) In the above formula, C represents the concentration of radioligand, and Kd represents the affinity of radioligand for the receptor as determined by the Scatchard analysis.
# 5. [^3 H] Spiperone Binding Test
# (§8) This test was conducted in the same manner as that of the binding test of [^3 H] Ketanserin except that the receptor fraction prepared from the corpus striatum was molten and suspended with a histocothrom, and the obtained suspension was incubated together with 1 nM-[^3 H], Spiperone at room temperature for 60 minutes and that the binding detected in the presence of 10 μl of Spiperone was regarded as nonspecific binding.
# [2] = molecular target: adrenergic α1 receptor; test: adrenergic α1 receptor binding test ([3H] Prazosin Binding Test); settings: 1 nM [3H] Prazosin, rat cortex, room temperature, 60 minutes
# Experimental: as §1, §2, §3, §4, §5
# (§9) The cortex was homogenized in a 0.32 M sucrose solution in an amount ten times the wet weight of the cortex by the use of a teflon glass homogenizer and the resulting mixture was centrifuged at 10,000×G for 20 minutes. The obtained sediment was suspended in 50 mM Tris hydrochloride (pH 7.4) in an amount ten times the initial wet weight of the cortex by the use of a histocothrom, and the obtained suspension was centrifuged at 10,000×G for 20 minutes. This operation was repeated twice. The obtained sediment was suspended in 50 mM Tris hydrochloride (pH 7.4) in an amount 20 times the initial wet weight of the cortex by the use of a histocothrom. The suspension thus prepared was used as a receptor fraction. This receptor fraction was stored at -80° C. until use.
# as §6, §7
# 6. [^3 H] Prazosin Binding Test
# as §8, with “cortex” for “corpus striatum”, “H] Prazosin” for “H], Spiperone”, “Phentolamine” for “Spiperone”
# [3] = molecular target: T2, serotonin S2 receptor (Rattus norvegicus, UniProt P14842); test: serotonin S2 receptor binding test ([3H] Ketanserin Binding Test); settings: 1 nM [3H] Ketanserin, rat cortex, 37° C., 15 minutes
# T2 construct: The receptor fraction prepared from the cortex was molten and suspended; from tissue; host or cells: cerebral cortex of SD rats (membrane fraction)
# T2 sequence (P14842 whole entry): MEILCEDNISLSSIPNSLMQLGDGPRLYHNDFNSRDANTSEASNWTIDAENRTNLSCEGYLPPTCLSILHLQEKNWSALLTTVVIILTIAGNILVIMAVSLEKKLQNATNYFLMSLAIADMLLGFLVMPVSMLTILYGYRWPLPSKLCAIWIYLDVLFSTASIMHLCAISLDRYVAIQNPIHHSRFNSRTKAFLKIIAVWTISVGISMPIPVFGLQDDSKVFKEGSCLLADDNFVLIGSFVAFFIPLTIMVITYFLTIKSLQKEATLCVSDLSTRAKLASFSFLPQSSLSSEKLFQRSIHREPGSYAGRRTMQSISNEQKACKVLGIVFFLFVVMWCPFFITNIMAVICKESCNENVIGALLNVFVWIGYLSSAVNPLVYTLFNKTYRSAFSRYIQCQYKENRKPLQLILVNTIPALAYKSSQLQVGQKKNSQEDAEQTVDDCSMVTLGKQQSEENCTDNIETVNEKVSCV
# Experimental: as §1, §2, §3, §4, §5, §9
# 4. [^3 ] Ketanserin Binding Test
# The receptor fraction prepared from the cortex was molten and suspended by the use of a histocothrom. The resulting suspension was incubated together with 1 nM-[^3 H] Ketanserin at 37° C. for 15 minutes. The resulting reaction system was filtered through a Whatman GF/B glass filter with an MR-30R type cell harvester mfd. by Blandel. The resulting filter was washed twice with 5 ml of 50 mM Tris hydrochloride (ph 7.4) cooled with ice and the radioactivity of the Ketanserin bound the receptor was determined by the use of a liquid scintillation counter with 5 ml of ACS II. The binding detected in the presence of […] of Methylsergide was regarded as nonspecific binding.
# as §6, §7
# [4] = read-out: Ki value, dopamine D2 receptor
Compound,"Ki [1, 4] [nM]",Ki [2] [nM],Ki [3] [nM],"Ki ([1]; Ki value, dopamine D2 receptor) [nM]"
"CCS(=O)(=O)Nc1cc(N2CCN(C)CC2)cc(-c2ccccc2C)c1Cl [Example 28, 1-Methyl-4-[3-(2-tolyl)-4-chloro-5-ethanesulfonylamino]phenylpiperazine]",1.6,50.8,5.67,–
"CCN1CCN(c2cc(-c3ccccc3)c(OC)c([S+]([O-])Cc3ccccc3)c2)CC1 (stereo not drawn) [Example 119, 1-Ethyl-4-(3-phenyl-4-methoxy-5-benzylsulfinyl)phenylpiperazine]",35.8,> 1000,34.9,–
CCN1CCN(c2cc(-c3ccccc3)c(OC)c(C(C)CO)c2)CC1 (stereo not drawn) [Example 87],135,> 1000,283,–
"CCCC(F)c1cc(N2CCN(CC)CC2)cc(-c2ccccc2C)c1F (stereo not drawn) [Example 50, 1-Ethyl-4-[3-(2-tolyl)-4-fluoro-5-(1-fluorobutyl)]phenylpiperazine]",9.14,> 1000,17.7,–
"CCCCS(=O)(=O)Nc1cc(N2CCN(CC)CC2)cc(-c2ccccc2Cl)c1Cl [Example 33, 1-Ethyl-4-[3-(2-chlorophenyl)-4-chloro-5-butanesulfonylamino]phenylpiperazine]",2.02,86.9,6.46,–
CCC(F)c1cc(N2CCN(CC)CC2)cc(-c2ccc(F)cc2Cl)c1Cl (stereo not drawn) [Example 156],1.39,513,29,–
"CCN1CCN(c2cc(-c3ccccc3)c(OC(C)C)c(-c3ccccc3)c2)CC1 [Example 60, 1-Ethyl-4-(3,5-diphenyl-4-isopropxy)phenylpiperazine]",> 1000,> 1000,> 1000,–
"CCN1CCN(c2cc(-c3ccccc3)c(OC)c(C(C)(C)F)c2)CC1 [Example 86, 1-Ethyl-4-[3-phenyl-4-methoxy-5-(1-fluoroisopropyl)]phenylpiperazine]",10.5,> 1000,29.4,–
"CCN1CCN(c2cc(NS(=O)(=O)CC)c(Cl)c(-c3ccccc3C)c2)CC1 [Example 18, 1-Ethyl-4-[3-(2-tolyl)-4-chloro-5-ethanesulfonylamino]phenylpiperazine]",0.75,53.7,6.15,–
"CCCN1CCN(c2cc(-c3ccccc3C)c(Cl)c(C(F)CC)c2)CC1 (stereo not drawn) [Example 151, 1-Propyl-4-[3-(2-tolyl)-4-chloro-5-(1-fluoropropyl)]phenylpiperazine]",3.52,> 1000,27.7,–
"CCN1CCN(c2cc(C(=O)Cc3ccncc3)c(OC)c(-c3ccccc3)c2)CC1 [Example 103, 1-Ethyl-4-[3-phenyl-4-methoxy-5-(4-pyridyl)acetyl]phenylpiperazine]",101,> 1000,6.65,–
"CCCS(=O)(=O)Nc1cc(N2CCN(C)CC2)cc(-c2ccccc2C)c1Cl [Example 29, 1-Methyl-4-[3-(2-tolyl)-4-chloro-5-propanesulfonylamino]phenylpiperazine]",1.19,50.1,4.86,–
"CCN1CCN(c2cc(C(=O)Cc3ccccc3)c(OC)c(-c3ccccc3)c2)CC1 [Example 92, 1-Ethyl-4-(3-phenyl-4-methoxy-5-phenylacetyl)phenylpiperazine]",2.71,942,1.14,–
"CCCCS(=O)(=O)c1cc(N2CCN(CC)CC2)cc(-c2ccccc2)c1OC [Example 171, 1-Ethyl-4-(3-phenyl-4-methoxy-5-butanesulfonyl)phenylpiperazine]",86.7,> 1000,2.74,–
"CCC(F)c1cc(N2CCN(CC)CC2)cc(-c2ccccc2C)c1Cl (stereo not drawn) [Example 27, 1-Ethyl-4-[3-(2-tolyl)-4-chloro-5-(1-fluloropropyl)]phenylpiperazine]",11.2,455,10.9,–
CCN1CCN(c2cc(-c3ccccc3C)c(Cl)c(N3CCCC3)c2)CC1 [Example 177],> 100,> 1000,> 100,–
"CCN1CCN(c2cc(-c3ccccc3)c(OC)c(S(=O)(=O)N(C)C)c2)CC1 [Example 134, 1-Ethyl-4-(3-phenyl-4-methoxy-5-dimemthylaminosulfonyl)phenylpiperazine]",59.7,> 1000,30.3,–
"CCN1CCN(c2cc(-c3ccccc3)c(OC)c(S(=O)(=O)CCF)c2)CC1 [Example 172, 1-Ethyl-4-[3-phenyl-4-methoxy-5-(2-fluoroethane)sulfonyl]phenylpiperazine]",48.9,> 1000,30.3,–
"CCN1CCN(c2cc(-c3ccc(F)cc3C)c(Cl)c(S(=O)(=O)NC3CC3)c2)CC1 [Example 146, 1-Ethyl-4-{3-[2(4-fluorotolyl)-]4-chloro-5-cyclopropaneaminosulfonyl}phenylpiperazine]",0.83,349,13.2,–
"CCN1CCN(c2cc(-c3ccccc3)c(OC)c(-c3ccccn3)c2)CC1 [Example 97, 1-Ethyl-4-[3-phenyl-4-methoxy-5-(2-pyridyl)]phenylpiperazine]",> 1000,> 1000,247,–
"CCCC(F)c1cc(N2CCN(CC)CC2)cc(-c2ccccc2C)c1Cl (stereo not drawn) [Example 49, 1-Ethyl-4-[3-(2-tolyl)-4-chloro-5-(1-fluorobutyl)]phenylpiperazine]",6.09,> 1000,20.1,–
"CCN1CCN(c2cc(CCl)c(OC)c(-c3ccccc3)c2)CC1 [Example 45, 1-Ethyl-4-(3-phenyl-4-methoxy-5-chloromelthy)phenylpiperazine]",–,183,192,26.9
"CCCc1cc(N2CCN(CC)CC2)cc(-c2ccc(C(F)(F)F)cc2)c1OC [Example 85, 1-Ethyl-4-[3-(4-trifluoromethylphenyl)-4-methoxy-5-propyl]phenylpiperazine]",> 1000,> 1000,> 1000,–
"COc1c(C(=O)Cc2ccccc2)cc(N2CCNCC2)cc1-c1ccccc1 [Example 125, 1-(3-phenyl-4-methoxy-5-phenylacetyl)phenylpiperazine]",101,> 1000,1.49,–
"CCN1CCN(c2cc(-c3ccccc3)c(O)c(-c3ccccc3)c2)CC1 [Example 58, 1-Ethyl-4-(3,5-diphenyl-4-hydroxy)phenylpiperazine]",> 1000,290,> 1000,–
"CCC(F)c1cc(N2CCN(CC)CC2)cc(-c2ccccc2)c1Cl (stereo not drawn) [Example 127, 1-Ethyl-4-[3-phenyl-4-chloro-5-(1-fluoropropyl)]phenylpiperazine]",1.04,65.9,11.4,–
"CCC(F)c1cc(-c2ccccc2)cc(N2CCN(CC)CC2)c1 (stereo not drawn) [Example 129, 1-Ethyl-4-[3-phenyl-5-(1-fluoropropyl)]phenylpiperazine]",–,39.8,34.9,1.86
"CCCC(F)c1cc(N2CCN(CC)CC2)cc(-c2ccccc2Cl)c1Cl (stereo not drawn) [Example 54, 1-Ethyl-4-[3-(2-chlorophenyl)-4-chloro-5-(1-fluorobutyl)]phenylpiperazine]",6.06,> 1000,37.5,–
